Measurements: ChEMBL document CHEMBL1201862, “PubChem BioAssay data set” (2004)
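Cells were grown in 96-well plates and exposed to each compound for 48 hours at five concentrations; endpoints were interpolated linearly between bracketing concentrations, or set to the highest concentration if not reached. The concentration for 50% growth inhibition is given as GI50.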 Calls of active or inactive are those of the source. No stated cut-off is given here; in the data, active = GI50 up to about 1.1 µM and inactive = higher.

Legend:
Experiment in all cases: NCI-60 cell line screen, 48 h
[1] = test system: RPMI-8226
[2] = test system: NCI-H226
[3] = test system: UACC-62
[4] = test system: LOX IMVI
[5] = test system: SNB-75
[6] = test system: SNB-19
[7] = test system: CCRF-CEM
[8] = test system: HCT-116
[9] = test system: ACHN
[10] = test system: KM12
[11] = test system: HT-29
[12] = test system: EKVX
[13] = test system: A549
[14] = test system: NCI-H522
[15] = test system: SW-620
[16] = test system: COLO 205
[17] = test system: M14
[18] = test system: U-251
[19] = test system: SF-539
[20] = test system: SK-OV-3

| Compound | GI50 [1] | GI50 [2] | GI50 [3] | GI50 [4] | GI50 [5] | GI50 [6] | GI50 [7] | GI50 [8] | GI50 [9] | GI50 [10] | GI50 [11] | GI50 [12] | GI50 [13] | GI50 [14] | GI50 [15] | GI50 [16] | GI50 [17] | GI50 [18] | GI50 [19] | GI50 [20] |
| --- | --- | --- | --- | --- | --- | --- | --- | --- | --- | --- | --- | --- | --- | --- | --- | --- | --- | --- | --- | --- |
| Nc1cc2[nH]c(=O)c3cc(Cl)ccc3c2cc1Cl | 0.514 µM (active) | 0.0649 µM (active) | 16.7 µM (inactive) | 11.1 µM (inactive) | 15.5 µM (inactive) | 8.47 µM (inactive) | 18.7 µM (inactive) | 5.15 µM (inactive) | 6.59 µM (inactive) | 15.1 µM (inactive) | 22.3 µM (inactive) | 2.52 µM (inactive) | 12.9 µM (inactive) | 13.4 µM (inactive) | 8.55 µM (inactive) | 43.9 µM (inactive) | 36.8 µM (inactive) | 10.9 µM (inactive) | 12.2 µM (inactive) | 3.98 µM (inactive) |
| O=C1/C(=C/c2ccc([N+](=O)[O-])cc2)C(=O)N(c2ccccc2)C1c1ccccc1 (stereo not given) | > 10 µM (inactive) | > 10 µM (inactive) | > 10 µM (inactive) | > 10 µM (inactive) | > 10 µM (inactive) | > 10 µM (inactive) | > 10 µM (inactive) | > 10 µM (inactive) | > 10 µM (inactive) | > 10 µM (inactive) | > 10 µM (inactive) | > 10 µM (inactive) | > 10 µM (inactive) | > 10 µM (inactive) | > 10 µM (inactive) | > 10 µM (inactive) | > 10 µM (inactive) | > 10 µM (inactive) | > 10 µM (inactive) | > 10 µM (inactive) |
| O=C(Nc1ccccc1Br)c1cccc([N+](=O)[O-])c1O | 1.52 µM (inactive) | 3.3 µM (inactive) | 1.91 µM (inactive) | 2.38 µM (inactive) | 5.25 µM (inactive) | 3.81 µM (inactive) | 2.78 µM (inactive) | 3.84 µM (inactive) | 3.67 µM (inactive) | 4.26 µM (inactive) | 4.73 µM (inactive) | 3.04 µM (inactive) | 3.37 µM (inactive) | 2.03 µM (inactive) | 6.81 µM (inactive) | 3.66 µM (inactive) | 4.32 µM (inactive) | 2.85 µM (inactive) | 5.61 µM (inactive) | 3.95 µM (inactive) |
| CCCN(C(=O)c1ccccc1)C(C#N)c1ccc(C(C#N)N(CCC)C(=O)c2ccccc2)cc1 (stereo not given) | > 100 µM (inactive) | 20 µM (inactive) | 45 µM (inactive) | > 100 µM (inactive) | 18.4 µM (inactive) | 26.1 µM (inactive) | > 100 µM (inactive) | > 100 µM (inactive) | 84.1 µM (inactive) | > 100 µM (inactive) | 21.6 µM (inactive) | 58.3 µM (inactive) | 56.6 µM (inactive) | > 100 µM (inactive) | > 100 µM (inactive) | > 100 µM (inactive) | > 100 µM (inactive) | 40 µM (inactive) | 28.5 µM (inactive) | 22 µM (inactive) |
| Cn1c(=O)[nH]n(-c2ccc3ccccc3c2)c1=O | > 100 µM (inactive) | > 100 µM (inactive) | > 100 µM (inactive) | > 100 µM (inactive) | > 100 µM (inactive) | > 100 µM (inactive) | > 100 µM (inactive) | > 100 µM (inactive) | > 100 µM (inactive) | > 100 µM (inactive) | > 100 µM (inactive) | > 100 µM (inactive) | > 100 µM (inactive) | > 100 µM (inactive) | > 100 µM (inactive) | > 100 µM (inactive) | > 100 µM (inactive) | > 100 µM (inactive) | > 100 µM (inactive) | > 100 µM (inactive) |
| O=C1CCN2c3ccccc3[C@H]3Cc4cccc(c4[C@@H]2C3)CCO1 | 31 µM (inactive) | 32.9 µM (inactive) | 43.5 µM (inactive) | 34.6 µM (inactive) | 27.4 µM (inactive) | 86.9 µM (inactive) | 28.8 µM (inactive) | 21.6 µM (inactive) | 44 µM (inactive) | 34.9 µM (inactive) | 36.6 µM (inactive) | 38.5 µM (inactive) | 33.9 µM (inactive) | 28.4 µM (inactive) | 35.3 µM (inactive) | 33.5 µM (inactive) | 19.4 µM (inactive) | 40.5 µM (inactive) | 79.3 µM (inactive) | 51.2 µM (inactive) |
| NC(=O)c1ccccc1NC(=O)C(=O)C(C(=O)c1ccc2ccccc2c1)C1OC(=O)c2ccccc21 (stereo not given) | 8.91 µM (inactive) | 2.85 µM (inactive) | 10.4 µM (inactive) | 11.3 µM (inactive) | 8.15 µM (inactive) | 4.04 µM (inactive) | 10.3 µM (inactive) | 9.71 µM (inactive) | > 100 µM (inactive) | 18.9 µM (inactive) | 27.8 µM (inactive) | 26.5 µM (inactive) | 16.3 µM (inactive) | 14 µM (inactive) | 8.24 µM (inactive) | 11.7 µM (inactive) | 14.3 µM (inactive) | 4.86 µM (inactive) | 4.6 µM (inactive) | 14.6 µM (inactive) |
| Cc1ccccc1NC(=O)CC(=O)n1nc(-c2ccccc2)c(/N=N/c2ccc([N+](=O)[O-])cc2)c1-c1ccccc1 | 19.2 µM (inactive) | 14.1 µM (inactive) | 13.1 µM (inactive) | 20.6 µM (inactive) | 19.2 µM (inactive) | 25.6 µM (inactive) | 28.4 µM (inactive) | 14.4 µM (inactive) | 11.2 µM (inactive) | 16.7 µM (inactive) | 8.34 µM (inactive) | 20.2 µM (inactive) | 16.1 µM (inactive) | 18.9 µM (inactive) | 30.5 µM (inactive) | 16.8 µM (inactive) | 16.7 µM (inactive) | 14.1 µM (inactive) | 19.9 µM (inactive) | 16.7 µM (inactive) |
| CC1=C(C(=O)NCc2ccccc2)C(c2ccccc2C)C(C(=O)NCc2ccccc2)=C(C)N1 | 29.9 µM (inactive) | 30.7 µM (inactive) | 17.2 µM (inactive) | 17.7 µM (inactive) | > 43.8 µM (inactive) | 35.6 µM (inactive) | 29.6 µM (inactive) | 19 µM (inactive) | 20 µM (inactive) | 24.8 µM (inactive) | 27.2 µM (inactive) | 58.7 µM (inactive) | 49.8 µM (inactive) | 28.4 µM (inactive) | 38.8 µM (inactive) | 38.8 µM (inactive) | 20.4 µM (inactive) | 24.5 µM (inactive) | 24.6 µM (inactive) | 91.2 µM (inactive) |
| COc1cc2c(cc1OC)C(=O)/C(=C/c1cc(C)cc(C)c1)C2 | 0.129 µM (active) | 0.172 µM (active) | 0.0443 µM (active) | 0.0807 µM (active) | 0.211 µM (active) | 1.1 µM (active) | 0.0514 µM (active) | 0.0445 µM (active) | 12.9 µM (inactive) | < 0.0203 µM (active) | 0.0385 µM (active) | 1.29 µM (inactive) | 0.0713 µM (active) | 0.0451 µM (active) | 0.0394 µM (active) | 0.0735 µM (active) | 0.148 µM (active) | 0.122 µM (active) | 0.0871 µM (active) | 0.308 µM (active) |
| COc1ccc2[nH]c3c(O)nncc3c2c1 | > 100 µM (inactive) | > 100 µM (inactive) | 53.2 µM (inactive) | > 100 µM (inactive) | 16.4 µM (inactive) | > 100 µM (inactive) | > 100 µM (inactive) | > 100 µM (inactive) | > 100 µM (inactive) | > 100 µM (inactive) | > 100 µM (inactive) | 8.45 µM (inactive) | > 100 µM (inactive) | > 100 µM (inactive) | > 100 µM (inactive) | > 100 µM (inactive) | > 100 µM (inactive) | > 100 µM (inactive) | > 100 µM (inactive) | 45.7 µM (inactive) |
